“And” between values parts separate entries of the source, which are not always exact repeats. Identical values can stand only once. Like-named read-outs stand apart in the source and are kept apart here.
Columns and labels:
[1] = tested on: Salmonella typhimurium TA 100, TA 98, TA 1535 and TA 1537 and Escherichia coli WP2 uvrA; experiment: Mutagenicity test (back mutation test) using microorganisms, all strains; type: cell-based
Method: A test was carried out in accordance with the “Standard of Mutagenicity Tests Using Microorganisms” (Ministry of Labor Notification No. 77, 1988) (partial revision by Ministry of Labor Notification No. 67, 1997) and “Regarding the Tests Concerning Novel Chemical Substances and the like” (dated Nov. 21, 2003: Yaku-Shoku-Hatsu No. 1121002, 2003.11.13 Sei-Kyoku, No. 2, Kan-Ho-Ki-Hatsu No. 031121002). […] In the measurement, an inner area of about 80 mm in diameter of a plate of 86 mm in diameter (84 mm in inner diameter) was measured using an automatic colony analyzer (CA-11: manufactured by System Science), and calculated by carrying out area correction and counting loss correction using a personal computer. However, since reliability of the automatic colony analyzer is reduced when the number of colonies is 1,500 or more, 5 points in the plate were manually measured under the stereoscopic microscope to carry out area correction of the average value. […]

[2] = tested on: Salmonella typhimurium TA 98; experiment: Back mutation test, TA98; type: cell-based
Method: A test was carried out in accordance with the “Standard of Mutagenicity Tests Using Microorganisms” (Ministry of Labor Notification No. 77, 1988) (partial revision by Ministry of Labor Notification No. 67, 1997) and “Regarding the Tests Concerning Novel Chemical Substances and the like” (dated Nov. 21, 2003: Yaku-Shoku-Hatsu No. 1121002, 2003.11.13 Sei-Kyoku, No. 2, Kan-Ho-Ki-Hatsu No. 031121002). To 0.1 ml of a solution prepared by dissolving 5% (w/v) of 5-aminolevulinic acid phosphate in distilled water (Wako Pure Chemical Industries), 0.5 ml of 0.1 M sodium-phosphate buffer (pH 7.4) (0.5 ml S9 mix in the case of metabolism activation test) was added, and 0.1 ml of each test strain suspension (5 strains of histidine-less Salmonella typhimurium TA 100, TA 98, TA 1535 and TA 1537 and tryptophan-less Escherichia coli WP2 uvrA were used (Japan Bioassay Research Center)) was further added thereto, followed by pre-incubation at 37° C. for 20 minutes while shaking. After completion of the culturing, 2.0 ml of top agar kept at 45° C. in advance was added thereto and layered on a minimum glucose agar plate medium. In this case, 2 plates were arranged for each dosage. However, 3 plates were arranged for a solvent control (negative control). […] In the measurement, an inner area of about 80 mm in diameter of a plate of 86 mm in diameter (84 mm in inner diameter) was measured using an automatic colony analyzer (CA-11: manufactured by System Science), and calculated by carrying out area correction and counting loss correction using a personal computer. However, since reliability of the automatic colony analyzer is reduced when the number of colonies is 1,500 or more, 5 points in the plate were manually measured under the stereoscopic microscope to carry out area correction of the average value. A dosage setting test was carried out on 7 dosages diluted at a common ratio of 4, using a dosage of 5,000 μg/plate as the maximum which is the maximum dosage defined by the guideline. […] Growth inhibition of the strains by this substance to be tested was not found. […] Thus, this test was carried out by setting 5 dosages diluted at a common ratio of 2, using a dosage of 5,000 μg/plate as the maximum which is the maximum dosage defined by the guideline.

[3] = tested on: Salmonella typhimurium TA 1535; details: TA1535
Method: (§1) A test was carried out in accordance with the “Standard of Mutagenicity Tests Using Microorganisms” (Ministry of Labor Notification No. 77, 1988) (partial revision by Ministry of Labor Notification No. 67, 1997) and “Regarding the Tests Concerning Novel Chemical Substances and the like” (dated Nov. 21, 2003: Yaku-Shoku-Hatsu No. 1121002, 2003.11.13 Sei-Kyoku, No. 2, Kan-Ho-Ki-Hatsu No. 031121002). To 0.1 ml of a solution prepared by dissolving 5% (w/v) of 5-aminolevulinic acid phosphate in distilled water (Wako Pure Chemical Industries), 0.5 ml of 0.1 M sodium-phosphate buffer (pH 7.4) (0.5 ml S9 mix in the case of metabolism activation test) was added, and 0.1 ml of each test strain suspension (5 strains of histidine-less Salmonella typhimurium TA 100, TA 98, TA 1535 and TA 1537 and tryptophan-less Escherichia coli WP2 uvrA were used (Japan Bioassay Research Center)) was further added thereto, followed by pre-incubation at 37° C. for 20 minutes while shaking. After completion of the culturing, 2.0 ml of top agar kept at 45° C. in advance was added thereto and layered on a minimum glucose agar plate medium. In this case, 2 plates were arranged for each dosage. However, 3 plates were arranged for a solvent control (negative control). […] In the measurement, an inner area of about 80 mm in diameter of a plate of 86 mm in diameter (84 mm in inner diameter) was measured using an automatic colony analyzer (CA-11: manufactured by System Science), and calculated by carrying out area correction and counting loss correction using a personal computer. However, since reliability of the automatic colony analyzer is reduced when the number of colonies is 1,500 or more, 5 points in the plate were manually measured under the stereoscopic microscope to carry out area correction of the average value. A dosage setting test was carried out on 7 dosages diluted at a common ratio of 4, using a dosage of 5,000 μg/plate as the maximum which is the maximum dosage defined by the guideline.

[4] = tested on: Salmonella typhimurium TA 1537; details: TA1537
Method: as §1

[5] = S9 Mix(+), 313 μg/plate, Phosphate
[6] = S9 Mix(+), 1250 μg/plate, Phosphate
[7] = S9 Mix(+), 5000 μg/plate, Phosphate
[8] = S9 Mix(−), 2500 μg/plate, Phosphate
[9] = S9 Mix(−), 1250 μg/plate, Phosphate

Q: For `NCC(=O)CCC(=O)O.O=P(O)(O)O` [5-aminolevulinic acid phosphate, 5-aminolevulinic Acid Phosphate], which mutation inducing ability [1] is on record?
A: does not have the mutation inducing ability

Q: What about the “number of back mutation, mean (in parentheses)” value (“number of back mutation, mean” for short) ([2]; S9 Mix(+), 313 μg/plate) of the same compound?
A: (12) colonies/plate

Q: And the “number of back mutation, single plates” value [2, 5]?
A: 13 colonies/plate and 11 colonies/plate

Q: What about the “number of back mutation, mean” value ([2]; S9 Mix(+), 625 μg/plate) of the same compound?
A: (9) colonies/plate

Q: What about the “number of back mutation, single plates” value ([2]; S9 Mix(+), 625 μg/plate) of the same compound?
A: 9 colonies/plate

Q: What about the “number of back mutation, mean” value ([2]; S9 Mix(+), 1250 μg/plate) of the same compound?
A: (21) colonies/plate

Q: And the “number of back mutation, single plates” value [2, 6]?
A: 14 colonies/plate and 27 colonies/plate

Q: And the “number of back mutation, mean” value ([2]; S9 Mix(+), 2500 μg/plate)?
A: (11) colonies/plate

Q: And the “number of back mutation, mean” value ([2]; S9 Mix(+), 5000 μg/plate)?
A: (21) colonies/plate

Q: What about the “number of back mutation, single plates” value [2, 7] of the same compound?
A: 20 colonies/plate and 21 colonies/plate

Q: What about the “number of back mutation, mean” value ([2]; S9 Mix(−), 313 μg/plate) of the same compound?
A: (8) colonies/plate

Q: What about the “number of back mutation, single plates” value ([2]; S9 Mix(−), 313 μg/plate, Phosphate) of the same compound?
A: 9 colonies/plate and 7 colonies/plate

Q: And the “number of back mutation, mean” value ([2]; S9 Mix(−), 625 μg/plate)?
A: (9) colonies/plate

Q: And the “number of back mutation, mean” value ([2]; S9 Mix(−), 1250 μg/plate)?
A: (6) colonies/plate

Q: What about the “number of back mutation, mean” value ([2]; S9 Mix(−), 2500 μg/plate) of the same compound?
A: (16) colonies/plate

Q: What about the “number of back mutation, single plates” value [2, 8] of the same compound?
A: 15 colonies/plate and 17 colonies/plate

Q: And the “number of back mutation, mean” value ([2]; S9 Mix(−), 5000 μg/plate)?
A: (8) colonies/plate

Q: And the “number of back mutation, single plates” value ([2]; S9 Mix(−), 5000 μg/plate, Phosphate)?
A: 9 colonies/plate and 7 colonies/plate

Q: And the “number of back mutation, mean” value ([3]; S9 Mix(+), 313 μg/plate)?
A: (11) colonies/plate

Q: What about the “number of back mutation, single plates” value [3, 5] of the same compound?
A: 11 colonies/plate and 10 colonies/plate

Q: What about the “number of back mutation, mean” value ([3]; S9 Mix(+), 625 μg/plate) of the same compound?
A: (10) colonies/plate

Q: What about the “number of back mutation, mean” value ([3]; S9 Mix(+), 1250 μg/plate) of the same compound?
A: (12) colonies/plate

Q: And the “number of back mutation, single plates” value [3, 6]?
A: 10 colonies/plate and 14 colonies/plate

Q: And the “number of back mutation, mean” value ([3]; S9 Mix(+), 2500 μg/plate)?
A: (8) colonies/plate

Q: And the “number of back mutation, single plates” value ([3]; S9 Mix(+), 2500 μg/plate)?
A: 8 colonies/plate

Q: And the “number of back mutation, mean” value ([3]; S9 Mix(+), 5000 μg/plate)?
A: (7) colonies/plate

Q: What about the “number of back mutation, single plates” value [3, 7] of the same compound?
A: 6 colonies/plate and 8 colonies/plate

Q: And the “number of back mutation, mean” value ([3]; S9 Mix(−), 313 μg/plate)?
A: (10) colonies/plate

Q: What about the “number of back mutation, single plates” value ([3]; S9 Mix(−), 313 μg/plate) of the same compound?
A: 10 colonies/plate

Q: What about the “number of back mutation, mean” value ([3]; S9 Mix(−), 625 μg/plate) of the same compound?
A: (10) colonies/plate

Q: And the “number of back mutation, mean” value ([3]; S9 Mix(−), 1250 μg/plate)?
A: (10) colonies/plate

Q: What about the “number of back mutation, single plates” value [3, 9] of the same compound?
A: 8 colonies/plate and 11 colonies/plate

Q: What about the “number of back mutation, mean” value ([3]; S9 Mix(−), 2500 μg/plate) of the same compound?
A: (6) colonies/plate

Q: What about the “number of back mutation, single plates” value [3, 8] of the same compound?
A: 6 colonies/plate and 5 colonies/plate

Q: And the “number of back mutation, mean” value ([3]; S9 Mix(−), 5000 μg/plate)?
A: (7) colonies/plate

Q: And the “number of back mutation, mean” value ([4]; S9 Mix(+), 313 μg/plate)?
A: (5) colonies/plate

Q: And the “number of back mutation, mean” value ([4]; S9 Mix(+), 625 μg/plate)?
A: (6) colonies/plate

Q: And the “number of back mutation, mean” value ([4]; S9 Mix(+), 1250 μg/plate)?
A: (6) colonies/plate

Q: What about the “number of back mutation, single plates” value ([4]; S9 Mix(+), 1250 μg/plate) of the same compound?
A: 6 colonies/plate

Q: And the “number of back mutation, mean” value ([4]; S9 Mix(+), 2500 μg/plate)?
A: (4) colonies/plate

Q: What about the “number of back mutation, single plates” value ([4]; S9 Mix(+), 2500 μg/plate, Phosphate) of the same compound?
A: 5 colonies/plate and 3 colonies/plate

Q: What about the “number of back mutation, mean” value ([4]; S9 Mix(+), 5000 μg/plate) of the same compound?
A: (4) colonies/plate

Q: And the “number of back mutation, mean” value ([4]; S9 Mix(−), 313 μg/plate)?
A: (2) colonies/plate

Q: What about the “number of back mutation, mean” value ([4]; S9 Mix(−), 625 μg/plate) of the same compound?
A: (3) colonies/plate

Q: And the “number of back mutation, mean” value ([4]; S9 Mix(−), 1250 μg/plate)?
A: (3) colonies/plate

Q: And the “number of back mutation, single plates” value [4, 9]?
A: 4 colonies/plate and 2 colonies/plate

Q: And the “number of back mutation, mean” value ([4]; S9 Mix(−), 2500 μg/plate)?
A: (2) colonies/plate

Q: What about the “number of back mutation, single plates” value ([4]; S9 Mix(−), 2500 μg/plate) of the same compound?
A: 2 colonies/plate

Q: And the “number of back mutation, mean” value ([4]; S9 Mix(−), 5000 μg/plate)?
A: (3) colonies/plate

Reference: patent publication US8471061B2 (priority 2004, dated 2013)
